Test results as given in ChEMBL document CHEMBL6115000, “Discovery of a first-in-class PROTAC degrader of histone lysine demethylase KDM4” (Eur J Med Chem, 2025).

Columns and labels:
[1] = biological target: T1, von Hippel-Lindau disease tumor suppressor/Lysine-specific demethylase 4A (Homo sapiens, UniProt O75164+P40337); experiment: PROTAC activity at VHL/KDM4A in human KYSE-150 cells assessed as induction of KDM4A degradation at 1 uM incubated for 12 hrs by Western blot analysis relative to control; type: cell-based; settings: KYSE-150 cell line
[2] = biological target: T1, von Hippel-Lindau disease tumor suppressor/Lysine-specific demethylase 4A; experiment: PROTAC activity at VHL/KDM4A in human KYSE-150 cells assessed as induction of KDM4A degradation at 0.1 uM incubated for 12 hrs by Western blot analysis relative to control; type: cell-based; settings: KYSE-150 cell line

T1 sequence (O75164 2-1064 limits assumed): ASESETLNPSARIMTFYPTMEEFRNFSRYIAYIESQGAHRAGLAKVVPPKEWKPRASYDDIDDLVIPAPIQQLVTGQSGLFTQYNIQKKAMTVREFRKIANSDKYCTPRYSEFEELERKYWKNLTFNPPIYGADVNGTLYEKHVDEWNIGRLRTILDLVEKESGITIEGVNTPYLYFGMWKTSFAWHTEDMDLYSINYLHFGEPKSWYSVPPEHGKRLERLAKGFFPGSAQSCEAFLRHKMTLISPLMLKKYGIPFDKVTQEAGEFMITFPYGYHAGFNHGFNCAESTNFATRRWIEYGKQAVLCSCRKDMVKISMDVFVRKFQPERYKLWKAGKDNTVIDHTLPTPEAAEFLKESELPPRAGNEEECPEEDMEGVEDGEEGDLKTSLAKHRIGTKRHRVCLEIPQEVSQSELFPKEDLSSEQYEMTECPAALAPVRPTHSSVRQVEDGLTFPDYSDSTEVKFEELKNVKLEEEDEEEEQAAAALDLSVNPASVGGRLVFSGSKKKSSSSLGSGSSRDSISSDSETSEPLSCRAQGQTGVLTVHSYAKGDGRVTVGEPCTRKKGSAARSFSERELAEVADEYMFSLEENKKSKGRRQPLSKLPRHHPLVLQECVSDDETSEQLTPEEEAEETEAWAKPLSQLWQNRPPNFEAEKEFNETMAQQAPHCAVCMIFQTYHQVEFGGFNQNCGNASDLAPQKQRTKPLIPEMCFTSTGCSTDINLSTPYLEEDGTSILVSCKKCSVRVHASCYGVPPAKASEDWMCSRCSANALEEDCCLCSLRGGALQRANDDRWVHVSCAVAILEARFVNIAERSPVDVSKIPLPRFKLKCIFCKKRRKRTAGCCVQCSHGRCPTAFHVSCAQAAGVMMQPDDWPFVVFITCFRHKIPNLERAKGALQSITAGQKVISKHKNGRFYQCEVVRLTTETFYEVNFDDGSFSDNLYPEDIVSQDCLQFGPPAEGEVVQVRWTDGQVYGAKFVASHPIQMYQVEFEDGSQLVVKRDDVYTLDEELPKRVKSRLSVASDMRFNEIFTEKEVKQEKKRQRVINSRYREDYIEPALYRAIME
T1 sequence (P40337 whole entry partner): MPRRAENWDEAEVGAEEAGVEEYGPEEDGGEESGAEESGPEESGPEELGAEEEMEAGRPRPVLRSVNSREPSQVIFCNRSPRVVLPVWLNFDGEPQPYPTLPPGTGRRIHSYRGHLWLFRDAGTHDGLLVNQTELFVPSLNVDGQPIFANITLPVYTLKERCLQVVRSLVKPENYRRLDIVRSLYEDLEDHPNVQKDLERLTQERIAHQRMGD

Row | Activity [1] | Activity [2] | SMILES
1 | 47.3% | 38.7% | Cc1ncsc1-c1ccc([C@H](C)NC(=O)[C@@H]2C[C@@H](O)CN2C(=O)[C@@H](NC(=O)c2ccc(C#CCCCCOc3ccc(N(C)c4ccc5c(c4)OCC[C@H]5CNc4cnccc4C(=O)O)cc3)cc2)C(C)(C)C)cc1
2 | 57.9% | 48.5% | Cc1ncsc1-c1ccc([C@H](C)NC(=O)[C@@H]2C[C@@H](O)CN2C(=O)[C@@H](NC(=O)CCCCCCOc2ccc(N(C)c3ccc4c(c3)OCC[C@H]4CNc3cnccc3C(=O)O)cc2)C(C)(C)C)cc1
3 | 53.9% | 34.6% | Cc1ncsc1-c1ccc([C@H](C)NC(=O)[C@@H]2C[C@@H](O)CN2C(=O)[C@@H](NC(=O)CCCCCCCCOc2ccc(N(C)c3ccc4c(c3)OCC[C@H]4CNc3cnccc3C(=O)O)cc2)C(C)(C)C)cc1
4 | 57.2% | 37.1% | Cc1ncsc1-c1ccc([C@H](C)NC(=O)[C@@H]2C[C@@H](O)CN2C(=O)[C@@H](NC(=O)CCCCCCCOc2ccc(N(C)c3ccc4c(c3)OCC[C@H]4CNc3cnccc3C(=O)O)cc2)C(C)(C)C)cc1
5 | 54.5% | 52.4% | Cc1ncsc1-c1ccc([C@H](C)NC(=O)[C@@H]2C[C@@H](O)CN2C(=O)[C@@H](NC(=O)c2ccc(CCCCCCOc3ccc(N(C)c4ccc5c(c4)OCC[C@H]5CNc4cnccc4C(=O)O)cc3)cc2)C(C)(C)C)cc1
6 | 12% | 19.5% | Cc1ncsc1-c1ccc([C@H](C)NC(=O)[C@@H]2C[C@@H](O)CN2C(=O)[C@@H](NC(=O)C2CCN(C(=O)CCCCCOc3ccc(N(C)c4ccc5c(c4)OCC[C@H]5CNc4cnccc4C(=O)O)cc3)CC2)C(C)(C)C)cc1
7 | 14.1% | 15.9% | Cc1ncsc1-c1ccc([C@H](C)NC(=O)[C@@H]2C[C@@H](O)CN2C(=O)[C@@H](NC(=O)CCCCCOc2ccc(N(C)c3ccc4c(c3)OCC[C@H]4CNc3cnccc3C(=O)O)cc2)C(C)(C)C)cc1
8 | 63.1% | 42.7% | Cc1ncsc1-c1ccc([C@H](C)NC(=O)[C@@H]2C[C@@H](O)CN2C(=O)[C@@H](NC(=O)c2ccc(CCCCCOc3ccc(N(C)c4ccc5c(c4)OCC[C@H]5CNc4cnccc4C(=O)O)cc3)cc2)C(C)(C)C)cc1
9 | 15.5% | -2.5% | Cc1ncsc1-c1ccc([C@H](C)NC(=O)[C@@H]2C[C@@H](O)CN2C(=O)[C@@H](NC(=O)CCOCCOCCOCCOc2ccc(N(C)c3ccc4c(c3)OCC[C@H]4CNc3cnccc3C(=O)O)cc2)C(C)(C)C)cc1
10 | 58.6% | 36.7% | Cc1ncsc1-c1ccc([C@H](C)NC(=O)[C@@H]2C[C@@H](O)CN2C(=O)[C@@H](NC(=O)CCCCCCCCCCOc2ccc(N(C)c3ccc4c(c3)OCC[C@H]4CNc3cnccc3C(=O)O)cc2)C(C)(C)C)cc1
11 | 58.5% | 47.1% | Cc1ncsc1-c1ccc([C@H](C)NC(=O)[C@@H]2C[C@@H](O)CN2C(=O)[C@@H](NC(=O)CCCCCCCCCCCOc2ccc(N(C)c3ccc4c(c3)OCC[C@H]4CNc3cnccc3C(=O)O)cc2)C(C)(C)C)cc1
12 | 41.1% | -0.2% | Cc1ncsc1-c1ccc([C@H](C)NC(=O)[C@@H]2C[C@@H](O)CN2C(=O)[C@@H](NC(=O)CCCCCCCOc2cccc(N(C)c3ccc4c(c3)OCC[C@H]4CNc3cnccc3C(=O)O)c2)C(C)(C)C)cc1
13 | 43.9% | 30.5% | Cc1ncsc1-c1ccc([C@H](C)NC(=O)[C@@H]2C[C@@H](O)CN2C(=O)[C@@H](NC(=O)c2ccc(CCCCOc3ccc(N(C)c4ccc5c(c4)OCC[C@H]5CNc4cnccc4C(=O)O)cc3)cc2)C(C)(C)C)cc1
14 | 15.5% | 6.5% | Cc1ncsc1-c1ccc([C@H](C)NC(=O)[C@@H]2C[C@@H](O)CN2C(=O)[C@@H](NC(=O)CCOCCOCCOc2ccc(N(C)c3ccc4c(c3)OCC[C@H]4CNc3cnccc3C(=O)O)cc2)C(C)(C)C)cc1
